US11116719B2, “Methods of treating Meniere's disease” (priority 2017, dated 2021)
Values joined by “and” are separate entries in the source; they are usually repeats but may differ in a detail not shown here. Identical values can stand only once. Like-named read-outs stand apart in the source and are kept apart here.

Tests used:
[1] = tested on: human patients suffering from secondary Meniere's disease (activated cervical sympathetic nervous system, mild Eustachian tube dysfunction); assay: Clinical treatment of secondary Meniere's disease patients with oral betahistine, electrocochleography (ECochG) SP/AP amplitude ratio and symptoms; type: in vivo
Method: Patients, aged 19-70 years, have undergone baseline testing to determine SP/AP amplitude ratio using ECochG in Meniere's disease patients before the start of study treatment. The effect on SP/AP amplitude ratio was evaluated after a predetermined period of treatment with betahistine or a pharmaceutically acceptable salt.
Patients were seated in a swivel chair and the chair rotated while the patient's head was stabilized. Effect of rotational movement was observed and pupil enlargement a determinant of secondary Meniere's disease.
Dose levels included 16 mg of betahistine three time daily for predetermined period. 8 mg dose twice daily thereafter for a second predetermined period.
Patient studies comprise a range of dosing regimens including tablets, powders, sprays. In present studies unless otherwise stated each dose was administered in a tablet form in the morning taken after food.
Route of Administration can include oral and topical delivery. In the present studies unless otherwise stated route of administration was oral delivery.
Audiological evaluations were performed at specified intervals to evaluate the efficacy of Tests performed by physician or qualified audiologist. ECochG was performed at specified intervals by a physician specialist. Patient reported outcomes by self-administered questionnaire included the VSS (Yardley et al. 2004) and the TFI (Meikle et al. 2011). These were scored by study personnel.
Patient was started on oral dosage form of betahistine 16 mg three times daily (tds) for two weeks and reduced to 8 mg once daily thereafter for two months.

[2] = high concentrations; cited from earlier work
[3] = tested on: Eustachian tube function in rat model; conditions: topical application; cited from earlier work
[4] = tested on: humans with Eustachian tube dysfunction; conditions: cited from earlier work
[5] = tested on: eustachian tube function in "normal" volunteers; conditions: cited from earlier work; for effect on eustachian tube function (tympanometry): "normal" volunteers, nasal application
[6] = patient, review at two months of oral betahistine
[7] = patient, two months into oral betahistine treatment

Question: Which “elevated SP/AP ratio indicating endolymphatic hydrops” value ([1]; all cases of secondary MD treated) does the source give for `CNCCc1ccccn1` [betahistine] here?
Answer: normalized

Question: And the “Left Ear SP/AP Ratio, Average Ratio” value ([1]; patient, after treatment (before treatment 28.6%))?
Answer: Average Ratio of 16%

Question: What about the “Right Ear SP/AP Ratio” value ([1]; patient, after treatment, single traces) of the same compound?
Answer: 9% and 18%

Question: And the repeat electrocochleograms [1, 6]?
Answer: returned to normal levels

Question: And the symptoms at review [1, 6]?
Answer: improved significantly

Question: And the repeat electrocochleograms [1, 7]?
Answer: returned to normal levels

Question: What about the symptoms at review [1, 7] of the same compound?
Answer: improved significantly

Question: And the treatment outcomes ([1]; patients suffering from secondary MD)?
Answer: invariably improved treatment outcomes

Question: What about the Eustachian tube function ([1]; patients with activated cervical sympathetic nervous system and mild Eustachian tube dysfunction) of the same compound?
Answer: facilitation of Eustachian tube function

Question: And the toxicity [2]?
Answer: nontoxic

Question: And the Eustachian tube function [3]?
Answer: improved

Question: What about the result versus placebo [4] of the same compound?
Answer: no greater result than a placebo

Question: What about the “effect on eustachian tube function (tympanometry)” value ([5]; at best) of the same compound?
Answer: no effect

Question: What about the “effect on eustachian tube function (tympanometry)” value ([5]; higher dosages) of the same compound?
Answer: Eustachian tube function became worse

Question: What about the “mild Eustachian tube dysfunction” value ([5]; volunteers found to have mild Eustachian tube dysfunction) of the same compound?
Answer: not improved
